Laboratory results from US10131652B2, “Pyrimidinyloxy benzene derivatives as herbicides” (E. I. DU PONT DE NEMOURS AND COMPANY, priority 2014, dated 2018).

How the values were obtained:
Format in all cases: in vivo
rice (Oryza sativa) = test: Test C flooded paddy test plant response; settings: Flood, 250 g ai/ha; scale of 0 to 100 where 0 is no effect and 100 is complete control; 13 to 15 days
In short: (§1)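 Water-applied treatment: compounds go directly into floodwater standing 3 cm over the soil of pots holding 2-leaf-stage plants. Depth is kept constant; plants stay in a greenhouse 13 to 15 days before visual comparison with controls on a 0–100 scale.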

[1] = test system: small-flower umbrella sedge (Cyperus difformis); test: Test C flooded paddy test plant response; settings: Flood, 250 g ai/ha; scale of 0 to 100 where 0 is no effect and 100 is complete control; 13 to 15 days
In short: as §1

[2] = test system: ducksalad (Heteranthera limosa); test: Test C flooded paddy test plant response; settings: Flood, 250 g ai/ha; scale of 0 to 100 where 0 is no effect and 100 is complete control; 13 to 15 days
In short: as §1

[3] = test system: barnyardgrass (Echinochloa crus-galli); test: Test C flooded paddy test plant response; settings: Flood, 250 g ai/ha; scale of 0 to 100 where 0 is no effect and 100 is complete control; 13 to 15 days
In short: as §1

[4] = test system: Italian ryegrass (Lolium multiflorum); test: Test B pre-/postemergence plant response; settings: for Ryegrass, Italian plant response rating: 0 to 100 scale (0 no effect, 100 complete control)
In short: (§2)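 Visual injury scores on a 0–100 scale (100 = complete control) relative to untreated plants, taken about 10 days post-treatment in greenhouse. Treatments were a directed preemergence soil spray and a postemergence spray at one- to two-leaf stage, using surfactant-containing solvent formulation.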

corn (Zea mays) = test: Test B pre-/postemergence plant response; settings: 0 to 100 scale, 0 no effect, 100 complete control
In short: as §2

[5] = test system: giant foxtail (Setaria faberii); test: Test B pre-/postemergence plant response; settings: for Foxtail, Giant plant response rating: 0 to 100 scale (0 no effect, 100 complete control)
In short: as §2

[6] = test system: wheat (Triticum aestivum); test: Test B pre-/postemergence plant response; settings: 125 g ai/ha, postemergence; 0 to 100 scale, 0 no effect, 100 complete control
In short: as §2

kochia (Kochia scoparia) = test: Test B pre-/postemergence plant response; settings: for Kochia plant response rating: 0 to 100 scale (0 no effect, 100 complete control)
In short: as §2

[7] = test system: pigweed (Amaranthus retroflexus); test: Test B pre-/postemergence plant response; settings: for Pigweed plant response rating: 0 to 100 scale (0 no effect, 100 complete control)
In short: as §2

[8] = test system: ragweed (common ragweed, Ambrosia elatior); test: Test B pre-/postemergence plant response; settings: for Ragweed plant response rating: 0 to 100 scale (0 no effect, 100 complete control)
In short: as §2

[9] = test system: barnyardgrass (Echinochloa crus-galli); test: Test B pre-/postemergence plant response; settings: for Barnyardgrass plant response rating: 0 to 100 scale (0 no effect, 100 complete control)
In short: as §2

[10] = test system: blackgrass (Alopecurus myosuroides); test: Test B postemergence plant response; settings: 0 to 100 scale, 0 no effect, 100 complete control
In short: (§3)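 Visual injury ratings, 0 = no effect to 100 = complete control, versus untreated controls approximately 10 days after postemergence spraying in greenhouse. Plants were at one- to two-leaf stage, 2 to 10 cm tall, in loam soil/sand blend; a dash denotes no result.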

[11] = test system: galium (catchweed bedstraw, Galium aparine); test: Test B postemergence plant response; settings: 125 g ai/ha, postemergence; 0 to 100 scale, 0 no effect, 100 complete control
In short: as §3

[12] = 31 g ai/ha, Preemergence, 0 to 100 scale where 0 is no effect and 100 is complete control
[13] = 125 g ai/ha, postemergence, 0 to 100 scale, 0 no effect, 100 complete control
[14] = 31 g ai/ha, Postemergence, 0 to 100 scale, 0 no effect, 100 complete control

Row | SMILES | Rice plant response rating (rice (Oryza sativa)) | Sedge, Umbrella plant response rating [1] | Ducksalad plant response rating [2] | Barnyardgrass plant response rating [3] | Plant response rating, Ryegrass, Italian [4, 12] | Plant response rating, Ryegrass, Italian [4, 13] | Ryegrass, Italian plant response rating ([4]; Preemergence, 125 g ai/ha) | Plant response rating, Corn (corn (Zea mays); 31 g ai/ha, Postemergence) | Plant response rating, Corn (corn (Zea mays); 125 g ai/ha, postemergence) | Plant response rating, Foxtail, Giant [5, 14] | Plant response rating, Foxtail, Giant [5, 12] | Plant response rating, Foxtail, Giant [5, 13] | Foxtail, Giant plant response rating ([5]; Preemergence, 125 g ai/ha) | Plant response rating, Wheat [6] | Plant response rating, Kochia (kochia (Kochia scoparia); [12]) | Plant response rating, Kochia (kochia (Kochia scoparia); [13]) | Kochia plant response rating (kochia (Kochia scoparia); Preemergence, 125 g ai/ha) | Plant response rating, Pigweed [7, 12] | Plant response rating, Pigweed [7, 13] | Pigweed plant response rating ([7]; Preemergence, 125 g ai/ha) | also measured
1 | Fc1ccc(-c2cc(C(F)(F)F)no2)c(Oc2ncc(Br)cn2)c1 [Compound 125] | 0 | 90 | 80 | 0 | 0 | 10 | 10 | 0 | 10 | 0 | 10 | 20 | 90 | 0 | 0 | 80 | 40 | 0 | 90 | 80 | Plant response rating, Ragweed [8, 12]: 0; Plant response rating, Ragweed [8, 13]: 20; Ragweed plant response rating ([8]; Preemergence, 125 g ai/ha): 0; Plant response rating, Barnyardgrass [9, 14]: 10; Plant response rating, Barnyardgrass [9, 12]: 0; Plant response rating, Barnyardgrass [9, 13]: 30; Barnyardgrass plant response rating ([9]; Preemergence, 125 g ai/ha): 50; Plant response rating, Blackgrass ([10]; 31 g ai/ha, Postemergence): 10; Plant response rating, Blackgrass ([10]; 125 g ai/ha, postemergence): 30; Plant response rating, Galium [11]: 100
2 | FC(F)(F)c1cc(-c2c(Cl)cccc2Oc2ncc(Cl)cn2)on1 [Compound 126] | 75 | 100 | 100 | 95 | 40 | 100 | 100 | 20 | 70 | 60 | 100 | 90 | 100 | 40 | 80 | 90 | 90 | 100 | 100 | 100 | Plant response rating, Ragweed [8, 12]: 10; Plant response rating, Ragweed [8, 13]: 40; Ragweed plant response rating ([8]; Preemergence, 125 g ai/ha): 10; Plant response rating, Barnyardgrass [9, 14]: 80; Plant response rating, Barnyardgrass [9, 12]: 90; Plant response rating, Barnyardgrass [9, 13]: 100; Barnyardgrass plant response rating ([9]; Preemergence, 125 g ai/ha): 100; Plant response rating, Blackgrass ([10]; 31 g ai/ha, Postemergence): 60; Plant response rating, Blackgrass ([10]; 125 g ai/ha, postemergence): 90; Plant response rating, Galium [11]: 100
